These results are taken from article PMC3311629, “Rational Design and Characterization of D-Phe-Pro-D-Arg-Derived Direct Thrombin Inhibitors” (PLoS ONE, 2012).

Square brackets hold non-standard residues; d marks the D form. Peptide text beside a SMILES is read from it. 2Thi = N[C@@H](Cc1cccs1)C(=O)O

A word on the Ki: it is a measure of affinity in units of concentration, obtained from inhibition or displacement. A higher Ki goes with weaker binding.

In one data set the target is bovine α-thrombin (Bos taurus, UniProt P00735). Put plainly: Inhibition of thrombin's hydrolytic activity towards chromogenic substrate S2238. It counts as biochemical. The note with it: bovine α-thrombin 5 nM, 25°C, pH 7.46. The procedure:
In a first instance, the inhibitory constants (Ki) for all peptides were determined using pseudo-first order kinetics. […] Substrate hydrolysis at 25°C, in sodium phosphate buffer pH 7.46, with 0.2 M NaCl and 50 µg/ml bovine serum albumin was monitored in real-time at 405 nm using a thermostated spectrophotometer (Cary), assuring that the hydrolysis of the chromogenic substrate was complete. Each kinetic trace was fitted to a first-order reaction mathematical model (At = A0*e^−kt or At = A0+a*(1−e^−kt)). The Ki was determined from the equation Ki = [I]/(kobs uninhibited/kobs inhibited−1), where kobs is the pseudo-first order rate constant and [I] is the molar inhibitor concentration. For the inhibitors that were structurally characterized, the kinetic parameters of S2238 hydrolysis and the type of inhibition were determined using 5 nM bovine α-thrombin (Sigma) and varying concentrations of both substrate (0–200 µM) and peptide inhibitors (0–50 µM). The data was fitted to a competitive enzyme inhibition model using Prism5 (GraphPad Software) and the built-in nonlinear regression global analysis package to determine the values for Ki, KM and Vmax. The goodness of fit was assessed using the built-in statistical analysis package, which enabled the calculation of R^2 values.

Another data set has as its target α-thrombin (Bos taurus, UniProt P00735). Briefly: Inhibitor resistance to proteolysis by thrombin (ESI mass spectrometry). It counts as in vitro ADME. The note with it: 20 µM peptide with 20 µM α-thrombin, 24 h, room temperature, pH 7.46, mass spectrometry. The procedure: After 24 h incubation, aliquots were removed and the reaction was quenched with 0.1% TFA. The samples were analyzed on an ESI spectrometer run in the positive mode. As the expected molecular mass of the tripeptide resulting from the hydrolysis of the D-Arg-P1′ peptide bond is 418.5 Da, spectra were acquired in the 400–1000 Da window.

In the next data set the target is T1, trypsin (Bos taurus, UniProt P00760).
T1 sequence (P00760 24-246): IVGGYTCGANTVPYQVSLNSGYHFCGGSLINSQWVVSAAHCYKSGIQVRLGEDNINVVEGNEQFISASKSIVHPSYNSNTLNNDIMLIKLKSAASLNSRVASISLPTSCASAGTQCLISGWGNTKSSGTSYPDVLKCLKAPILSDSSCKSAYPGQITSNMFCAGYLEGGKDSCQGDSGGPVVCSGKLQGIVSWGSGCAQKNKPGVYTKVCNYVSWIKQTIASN
Briefly: Inhibitory activity towards trypsin (chromogenic substrate BAPNA). It counts as biochemical. The note with it: for selectivity for thrombin versus trypsin: ratio of Ki values, thrombin vs trypsin; for Ki: trypsin 25 nM, BAPNA 1.84 mM, Ki = IC50/(1+S/KM), competitive mechanism assumed. The procedure: (§1) Factor Xa (15 nM; American Diagnostica) or trypsin (25 nM; Sigma) was incubated for 15 min at room temperature with 20–1600 µM of fPrI, fPrC or fPrt in 50 mM Tris-HCl pH 8.0 and 150 mM NaCl (factor Xa) or 50 mM Tris-HCl pH 8.0, 150 mM NaCl and 160 mM CaCl2 prior to substrate addition. The chromogenic substrates were S2222 (Nα-Benzoyl-L-isoleucyl-L-glutamyl-glycyl-L-arginine-4-nitroanilide hydrochloride; American Diagnostica) for factor Xa or BAPNA (Nα-Benzoyl-L-arginine-4-nitroanilide hydrochloride; Sigma) for trypsin. Substrate hydrolysis was monitored at 405 (S2222) or 410 nm (BAPNA) using a thermostated spectrophotometer (Cary). IC50 values were determined using the built in equation provided by Prism5 (GraphPad Software).

For another data set, the target named is T2, factor Xa (Homo sapiens, UniProt P00742).
T2 construct: Factor Xa (15 nM; American Diagnostica); purchased American Diagnostica
Put plainly: Inhibitory activity towards factor Xa (chromogenic substrate S2222). It counts as biochemical. The settings on record: for Ki: factor Xa 15 nM, S2222 0.18 mM, Ki = IC50/(1+S/KM), competitive mechanism assumed; for selectivity for thrombin versus factor Xa: ratio of Ki values, thrombin vs factor Xa. The procedure:
as §1

T2 sequence (P00742 235-488 limits assumed): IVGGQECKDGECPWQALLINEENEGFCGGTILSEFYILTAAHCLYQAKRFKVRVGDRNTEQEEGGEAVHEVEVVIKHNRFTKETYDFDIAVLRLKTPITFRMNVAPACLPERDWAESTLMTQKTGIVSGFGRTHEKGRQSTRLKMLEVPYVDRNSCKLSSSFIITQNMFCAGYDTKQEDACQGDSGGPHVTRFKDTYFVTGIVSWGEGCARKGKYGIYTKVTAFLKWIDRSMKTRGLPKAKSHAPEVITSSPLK
T2 sequence (P00742 41-179 partner limits assumed): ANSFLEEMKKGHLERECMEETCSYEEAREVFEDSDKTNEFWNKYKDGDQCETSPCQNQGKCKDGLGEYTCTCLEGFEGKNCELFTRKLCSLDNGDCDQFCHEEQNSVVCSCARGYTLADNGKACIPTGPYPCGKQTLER

Compound `C[C@H](NC(=O)[C@@H](CCCNC(=N)N)NC(=O)[C@@H]1CCCN1C(=O)[C@H](N)Cc1ccccc1)C(N)=O` [Peptide 1, D-Phe-Pro-D-Arg-Ala] (H-[dF]P[dR]A-NH2; N-terminus assumed) showed a Ki at bovine α-thrombin of 16.6 ± 0.8 µM. Compound `C[C@@H](NC(=O)[C@@H](CCCNC(=N)N)NC(=O)[C@@H]1CCCN1C(=O)[C@H](N)Cc1ccccc1)C(N)=O` [Peptide 2, D-Phe-Pro-D-Arg-D-Ala] (H-[dF]P[dR][dA]-NH2) showed a Ki at bovine α-thrombin of 2.06 ± 0.04 µM. Same read-out and setting: in the case of `N=C(N)NCCC[C@@H](NC(=O)[C@@H]1CCCN1C(=O)[C@H](N)Cc1ccccc1)C(=O)NCC(N)=O` [Peptide 3, D-Phe-Pro-D-Arg-Gly] (H-[dF]P[dR]G-NH2) it was 5.9 ± 0.2 µM; in that of `N=C(N)NCCC[C@H](NC(=O)[C@@H](CCCNC(=N)N)NC(=O)[C@@H]1CCCN1C(=O)[C@H](N)Cc1ccccc1)C(N)=O` [Peptide 4, D-Phe-Pro-D-Arg-Arg] (H-[dF]P[dR]R-NH2), 91.1 ± 8.2 µM; in that of `N=C(N)NCCC[C@@H](NC(=O)[C@@H]1CCCN1C(=O)[C@H](N)Cc1ccccc1)C(=O)N[C@@H](CCCCN)C(N)=O` [Peptide 5, D-Phe-Pro-D-Arg-Lys] (H-[dF]P[dR]K-NH2), 66.6 ± 6.5 µM. Same read-out and setting: in the case of `N=C(N)NCCC[C@@H](NC(=O)[C@@H]1CCCN1C(=O)[C@H](N)Cc1ccccc1)C(=O)N[C@@H](CCC(=O)O)C(N)=O` [Peptide 6, D-Phe-Pro-D-Arg-Glu] (H-[dF]P[dR]E-NH2) it was 556 ± 89.6 µM. For `N=C(N)NCCC[C@@H](NC(=O)[C@@H]1CCCN1C(=O)[C@H](N)Cc1ccccc1)C(=O)N[C@@H](Cc1c[nH]cn1)C(N)=O` [Peptide 7, D-Phe-Pro-D-Arg-His] (H-[dF]P[dR]H-NH2), at bovine α-thrombin, the affinity, expressed as Ki, was 122 ± 9.5 µM. The same measure, in the same setting: then `N=C(N)NCCC[C@@H](NC(=O)[C@@H]1CCCN1C(=O)[C@H](N)Cc1ccccc1)C(=O)N[C@@H](Cc1ccccc1)C(N)=O` [Peptide 8, D-Phe-Pro-D-Arg-Phe] (H-[dF]P[dR]F-NH2), with 250 ± 20 µM; and `N=C(N)NCCC[C@@H](NC(=O)[C@@H]1CCCN1C(=O)[C@H](N)Cc1ccccc1)C(=O)N1CCC[C@H]1C(N)=O` [Peptide 9, D-Phe-Pro-D-Arg-Pro] (H-[dF]P[dR]P-NH2), with 89.5 ± 5.5 µM; and `N=C(N)NCCC[C@@H](NC(=O)[C@@H]1CCCN1C(=O)[C@H](N)Cc1ccccc1)C(=O)N1CCC[C@@H]1C(N)=O` [Peptide 10, D-Phe-Pro-D-Arg-D-Pro] (H-[dF]P[dR][dP]-NH2), with 489 ± 113 µM. With `N=C(N)NCCC[C@@H](NC(=O)[C@@H]1CCCN1C(=O)[C@H](N)Cc1ccccc1)C(=O)N[C@@H](Cc1c[nH]c2ccccc12)C(N)=O` [Peptide 11, D-Phe-Pro-D-Arg-Trp] (H-[dF]P[dR]W-NH2), the affinity at bovine α-thrombin corresponds to a Ki of 65.6 ± 7.2 µM. On the same count and under the same terms, in the case of `N=C(N)NCCC[C@@H](NC(=O)[C@@H]1CCCN1C(=O)[C@H](N)Cc1ccccc1)C(=O)N[C@@H](Cc1ccc(O)cc1)C(N)=O` [Peptide 12, D-Phe-Pro-D-Arg-Tyr] (H-[dF]P[dR]Y-NH2) it was 50.5 ± 3.4 µM; in that of `CC(C)[C@H](NC(=O)[C@@H](CCCNC(=N)N)NC(=O)[C@@H]1CCCN1C(=O)[C@H](N)Cc1ccccc1)C(N)=O` [Peptide 13, D-Phe-Pro-D-Arg-Val] (H-[dF]P[dR]V-NH2), 56.3 ± 1.5 µM. In the case of `CC(C)[C@@H](NC(=O)[C@@H](CCCNC(=N)N)NC(=O)[C@@H]1CCCN1C(=O)[C@H](N)Cc1ccccc1)C(N)=O` [Peptide 14, D-Phe-Pro-D-Arg-D-Val] (H-[dF]P[dR][dV]-NH2), the affinity on bovine α-thrombin corresponds to a Ki of 2.17 ± 0.6 µM. The same measure, in the same setting: then `C[C@@H](O)[C@H](NC(=O)[C@@H](CCCNC(=N)N)NC(=O)[C@@H]1CCCN1C(=O)[C@H](N)Cc1ccccc1)C(N)=O` [Peptide 15, D-Phe-Pro-D-Arg-Thr] (H-[dF]P[dR]T-NH2), with 12.5 ± 0.35 µM. As to `C[C@H](O)[C@@H](NC(=O)[C@@H](CCCNC(=N)N)NC(=O)[C@@H]1CCCN1C(=O)[C@H](N)Cc1ccccc1)C(N)=O` [Peptide 16, D-Phe-Pro-D-Arg-D-Thr] (H-[dF]P[dR][dT]-NH2), at α-thrombin, the “Stability against thrombin hydrolysis (cleavage product D-Phe-Pro-D-Arg, 418.5 Da)” value (from here on “Stability against thrombin hydrolysis”) is reported as “could not be identified”. On bovine α-thrombin, this compound yielded a Ki of 0.92 ± 0.08 µM. Moreover, on trypsin, the “selectivity for thrombin versus trypsin” value is recorded as 420 fold and the Ki was 389 ± 5.5 µM. Further, on factor Xa, the affinity corresponds to a Ki of 103 ± 1.44 µM and the “selectivity for thrombin versus factor Xa” value is on record as 110 fold. For `N=C(N)NCCC[C@@H](NC(=O)[C@@H]1CCCN1C(=O)[C@H](N)Cc1ccccc1)C(=O)N[C@@H](CO)C(N)=O` [Peptide 17, D-Phe-Pro-D-Arg-Ser] (H-[dF]P[dR]S-NH2), on bovine α-thrombin, affinity was put at a Ki of 17.1 ± 0.8 µM. The same measure, in the same setting: in the case of `N=C(N)NCCC[C@@H](NC(=O)[C@@H]1CCCN1C(=O)[C@H](N)Cc1ccccc1)C(=O)N[C@H](CO)C(N)=O` [Peptide 18, D-Phe-Pro-D-Arg-D-Ser] (H-[dF]P[dR][dS]-NH2) it was 12.3 ± 0.08 µM. Regarding `N=C(N)NCCC[C@@H](NC(=O)[C@@H]1CCCN1C(=O)[C@H](N)Cc1ccccc1)C(=O)N[C@@H](CS)C(N)=O` [Peptide 19, D-Phe-Pro-D-Arg-Cys] (H-[dF]P[dR]C-NH2), the “Stability against thrombin hydrolysis” value on α-thrombin is recorded as “could not be identified”. The compound further came in with a Ki at bovine α-thrombin of 16.5 ± 1.5 µM. For the same compound, on trypsin, the “selectivity for thrombin versus trypsin” value is 20 fold and the affinity corresponds to a Ki of 377.1 ± 3.6 µM. Also, at factor Xa, the affinity corresponds to a Ki of 41.4 ± 2.6 µM and the “selectivity for thrombin versus factor Xa” value is 3 fold. As to `N=C(N)NCCC[C@@H](NC(=O)[C@@H]1CCCN1C(=O)[C@H](N)Cc1ccccc1)C(=O)N[C@H](CS)C(N)=O` [Peptide 20, D-Phe-Pro-D-Arg-D-Cys] (H-[dF]P[dR][dC]-NH2), at bovine α-thrombin, the inhibition constant Ki turned out to be 2.4 ± 0.05 µM. The same measure, in the same setting: in the case of `N=C(N)NCCC[C@@H](NC(=O)[C@@H]1CCCN1C(=O)[C@H](N)Cc1ccccc1)C(=O)N[C@@H](CCC(N)=O)C(N)=O` [Peptide 21, D-Phe-Pro-D-Arg-Gln] (H-[dF]P[dR]Q-NH2) it was 43.1 ± 2.6 µM; in that of `N=C(N)NCCC[C@@H](NC(=O)[C@@H]1CCCN1C(=O)[C@H](N)Cc1ccccc1)C(=O)N[C@H](CCC(N)=O)C(N)=O` [Peptide 22, D-Phe-Pro-D-Arg-D-Gln] (H-[dF]P[dR][dQ]-NH2), 19.3 ± 0.6 µM. `CC[C@H](C)[C@H](NC(=O)[C@@H](CCCNC(=N)N)NC(=O)[C@@H]1CCCN1C(=O)[C@H](N)Cc1ccccc1)C(N)=O` [Peptide 23, D-Phe-Pro-D-Arg-Ile] (H-[dF]P[dR]I-NH2): at α-thrombin, the “Stability against thrombin hydrolysis” value was “could not be identified”. For the same compound, the Ki on bovine α-thrombin turned out to be 7.7 ± 0.73 µM; on trypsin it was 90.2 ± 2.8 µM; at factor Xa, 7300 µM. Further, the “selectivity for thrombin versus trypsin” value at trypsin amounted to 12 fold. As to `CC[C@@H](C)[C@@H](NC(=O)[C@@H](CCCNC(=N)N)NC(=O)[C@@H]1CCCN1C(=O)[C@H](N)Cc1ccccc1)C(N)=O` [Peptide 24, D-Phe-Pro-D-Arg-D-Ile] (H-[dF]P[dR][dI]-NH2), the Ki at bovine α-thrombin came to 7.44 ± 0.5 µM. The same measure, in the same setting: in the case of `CC(C)C[C@H](NC(=O)[C@@H](CCCNC(=N)N)NC(=O)[C@@H]1CCCN1C(=O)[C@H](N)Cc1ccccc1)C(N)=O` [Peptide 25, D-Phe-Pro-D-Arg-Leu] (H-[dF]P[dR]L-NH2) it was 20.6 ± 4.5 µM. Same read-out and setting: in the case of `CC(C)C[C@@H](NC(=O)[C@@H](CCCNC(=N)N)NC(=O)[C@@H]1CCCN1C(=O)[C@H](N)Cc1ccccc1)C(N)=O` [Peptide 26, D-Phe-Pro-D-Arg-D-Leu] (H-[dF]P[dR][dL]-NH2) it was 4.13 ± 0.24 µM.

At bovine α-thrombin, `N=C(N)NCCC[C@@H](NC(=O)[C@@H]1CCCN1C(=O)[C@H](N)Cc1ccccc1)C(=O)N[C@@H](Cc1cccs1)C(N)=O` [Peptide 27, D-Phe-Pro-D-Arg-Thi] (H-[dF]P[dR][2Thi]-NH2) registered an inhibition constant (Ki) of 8.16 ± 0.35 µM. `CSCC[C@H](NC(=O)[C@@H](CCCNC(=N)N)NC(=O)[C@@H]1CCCN1C(=O)[C@H](N)Cc1ccccc1)C(N)=O` [Peptide 28, D-Phe-Pro-D-Arg-Met] (H-[dF]P[dR]M-NH2) returned a Ki at bovine α-thrombin of 37.2 ± 2.5 µM.
